Blank lines part the entries; values can stand above or below the compound they belong to.
Test system: 361931-004-R-J1-PDC multicell spheroid viability
Assay: Anticancer human tumor 361931-004-R-J1-PDC patient-derived colon adenocarcinoma cell line growth inhibition [PI3K]
Conditions: for IC50: curve of first compound; for viability, T/C: stronger effect = lower value
How it was run: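 Stroma-containing spheroids: tumor line, pooled-donor HUVEC, hMSC. Treatments: targeted agents with PI3K inhibitors. Dosing: clinically relevant, half-log spacing, 10 microM ceiling without known Cmax. Read-out: cell viability.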

[1] = second compound 0.0316 µM, first compound 0.0316 µM
[2] = second compound 0.0316 µM, first compound 0.1 µM
[3] = second compound 0.0316 µM, first compound 0.316 µM
[4] = second compound 0.0316 µM, first compound 1 µM
[5] = second compound 0.0316 µM, first compound 3.16 µM
[6] = second compound 0.0316 µM, first compound 10 µM
[7] = second compound 0.1 µM, first compound 0.0316 µM
[8] = second compound 0.1 µM, first compound 0.1 µM
[9] = second compound 0.1 µM, first compound 0.316 µM
[10] = second compound 0.1 µM, first compound 1 µM
[11] = second compound 0.1 µM, first compound 3.16 µM
[12] = second compound 0.1 µM, first compound 10 µM
[13] = second compound 0.316 µM, first compound 0.0316 µM
[14] = second compound 0.316 µM, first compound 0.1 µM
[15] = second compound 0.316 µM, first compound 0.316 µM
[16] = second compound 0.316 µM, first compound 1 µM
[17] = second compound 0.316 µM, first compound 3.16 µM
[18] = second compound 0.316 µM, first compound 10 µM
[19] = second compound 1 µM, first compound 0.0316 µM
[20] = second compound 1 µM, first compound 0.1 µM
[21] = second compound 1 µM, first compound 0.316 µM
[22] = second compound 1 µM, first compound 1 µM
[23] = second compound 1 µM, first compound 3.16 µM
[24] = second compound 1 µM, first compound 10 µM
[25] = second compound 3.16 µM, first compound 0.0316 µM
[26] = second compound 3.16 µM, first compound 0.1 µM
[27] = second compound 3.16 µM, first compound 0.316 µM
[28] = second compound 3.16 µM, first compound 1 µM
[29] = second compound 3.16 µM, first compound 3.16 µM
[30] = second compound 3.16 µM, first compound 10 µM
[31] = second compound 10 µM, first compound 0.0316 µM
[32] = second compound 10 µM, first compound 0.1 µM
[33] = second compound 10 µM, first compound 0.316 µM
[34] = second compound 10 µM, first compound 1 µM
[35] = second compound 10 µM, first compound 3.16 µM
[36] = second compound 10 µM, first compound 10 µM
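Further: spheroids exposed to agents for seven days before readout.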

IC50 (second compound 0.0316 µM): > 10 µM | IC50 (second compound 0.1 µM): > 10 µM | IC50 (second compound 0.316 µM): > 10 µM | IC50 (second compound 1 µM): > 10 µM | IC50 (second compound 3.16 µM): > 10 µM | IC50 (second compound 10 µM): > 10 µM
SMILES: C=CC(=O)N1CCN(c2nc(=O)n(-c3c(C)ccnc3C(C)C)c3nc(-c4c(O)cccc4F)c(F)cc23)C(C)C1 (centres undefined) + CC(Nc1ncnc2nc[nH]c12)c1cc2cccc(Cl)c2c(=O)n1-c1ccccc1
viability, T/C [1]: 102% | viability, T/C [2]: 102% | viability, T/C [3]: 104% | viability, T/C [4]: 104% | viability, T/C [5]: 102% | viability, T/C [6]: 99.3% | viability, T/C [7]: 100% | viability, T/C [8]: 95.8% | viability, T/C [9]: 103% | viability, T/C [10]: 111% | viability, T/C [11]: 104% | viability, T/C [12]: 92.5% | viability, T/C [13]: 105% | viability, T/C [14]: 108% | viability, T/C [15]: 103% | viability, T/C [16]: 98.3% | viability, T/C [17]: 107% | viability, T/C [18]: 86.8% | viability, T/C [19]: 98.7% | viability, T/C [20]: 109% | viability, T/C [21]: 103% | viability, T/C [22]: 106% | viability, T/C [23]: 102% | viability, T/C [24]: 90.5% | viability, T/C [25]: 100% | viability, T/C [26]: 103% | viability, T/C [27]: 99.9% | viability, T/C [28]: 104% | viability, T/C [29]: 106% | viability, T/C [30]: 89.9% | viability, T/C [31]: 104% | viability, T/C [32]: 108% | viability, T/C [33]: 98.2% | viability, T/C [34]: 100% | viability, T/C [35]: 101% | viability, T/C [36]: 93.6%

IC50 (second compound 0.0316 µM): > 10 µM | IC50 (second compound 0.1 µM): > 10 µM | IC50 (second compound 0.316 µM): > 10 µM | IC50 (second compound 1 µM): > 10 µM | IC50 (second compound 3.16 µM): > 10 µM | IC50 (second compound 10 µM): > 10 µM
SMILES: CC(Cn1ccc(-c2ccc(C#N)c(Cl)c2)n1)NC(=O)c1cc(C(C)O)[nH]n1 (centres undefined) + CC(Nc1ncnc2nc[nH]c12)c1cc2cccc(Cl)c2c(=O)n1-c1ccccc1
viability, T/C [1]: 102% | viability, T/C [2]: 92.6% | viability, T/C [3]: 96.7% | viability, T/C [4]: 90% | viability, T/C [5]: 104% | viability, T/C [6]: 102% | viability, T/C [7]: 105% | viability, T/C [8]: 96.9% | viability, T/C [9]: 103% | viability, T/C [10]: 101% | viability, T/C [11]: 106% | viability, T/C [12]: 99.4% | viability, T/C [13]: 102% | viability, T/C [14]: 103% | viability, T/C [15]: 104% | viability, T/C [16]: 103% | viability, T/C [17]: 108% | viability, T/C [18]: 97.4% | viability, T/C [19]: 99.5% | viability, T/C [20]: 102% | viability, T/C [21]: 96.4% | viability, T/C [22]: 98% | viability, T/C [23]: 100% | viability, T/C [24]: 106% | viability, T/C [25]: 98.8% | viability, T/C [26]: 104% | viability, T/C [27]: 100% | viability, T/C [28]: 104% | viability, T/C [29]: 103% | viability, T/C [30]: 104% | viability, T/C [31]: 105% | viability, T/C [32]: 95.9% | viability, T/C [33]: 100% | viability, T/C [34]: 99% | viability, T/C [35]: 109% | viability, T/C [36]: 98.7%
